Test results taken from paper PMC8079033, “Design, synthesis, anticancer evaluation, and molecular modelling studies of novel tolmetin derivatives as potential VEGFR-2 inhibitors and apoptosis inducers” (Journal of Enzyme Inhibition and Medicinal Chemistry, 2021).

Key:
Assay in all cases: NCI 60-cell line one-dose antiproliferative screen (SRB)
Assay type in all cases: cell-based
[1] = system: NCI/ADR-RES; conditions: Homo sapiens, read-out: growth inhibition % (GI%)
In short: (§1)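 Single dose 10 µM; 48 h exposure, 37 °C/5% CO2, after 24 h preincubation. TCA fix, SRB stain, A515. % growth vs untreated control and time-zero plates, reported as GI%.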

[2] = system: MCF7; conditions: Homo sapiens, read-out: growth inhibition % (GI%)
In short: as §1

[3] = system: MOLT-4; conditions: Homo sapiens, read-out: growth inhibition % (GI%)
In short: as §1

[4] = system: MDA-MB-468; conditions: Homo sapiens, read-out: growth inhibition % (GI%)
In short: as §1

[5] = system: SF-539; conditions: Homo sapiens, read-out: growth inhibition % (GI%)
In short: as §1

[6] = system: UACC-62; conditions: Homo sapiens, read-out: growth inhibition % (GI%)
In short: as §1

[7] = system: BT-5; conditions: Homo sapiens, read-out: growth inhibition % (GI%)
In short: as §1

[8] = system: NCI-H460; conditions: Homo sapiens, read-out: growth inhibition % (GI%)
In short: as §1

[9] = system: U251; conditions: Homo sapiens, U-251, read-out: growth inhibition % (GI%)
In short: as §1

[10] = system: SF-295; conditions: Homo sapiens, read-out: growth inhibition % (GI%)
In short: as §1

[11] = system: T-47D; conditions: Homo sapiens, T47D, read-out: growth inhibition % (GI%)
In short: as §1

[12] = system: K-562; conditions: Homo sapiens, K562, read-out: growth inhibition % (GI%)
In short: as §1

[13] = system: NCI-H522; conditions: Homo sapiens, read-out: growth inhibition % (GI%)
In short: as §1

[14] = system: NCI-H322M; conditions: Homo sapiens, read-out: growth inhibition % (GI%)
In short: as §1

[15] = system: MDA-MB-231/ATCC; conditions: Homo sapiens, read-out: growth inhibition % (GI%)
In short: as §1

[16] = system: A549/ATCC; conditions: Homo sapiens, read-out: growth inhibition % (GI%)
In short: as §1

[17] = system: LOX IMVI; conditions: Homo sapiens, read-out: growth inhibition % (GI%)
In short: as §1

[18] = system: IGROV1; conditions: Homo sapiens, IGROV-1, read-out: growth inhibition % (GI%)
In short: as §1

[19] = system: RPMI-8226; conditions: Homo sapiens, read-out: growth inhibition % (GI%)
In short: as §1

[20] = system: HL-60 (TB); conditions: Homo sapiens, read-out: growth inhibition % (GI%)
In short: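 For the suspension line, settled cells were fixed with 80% TCA to a final 16%; attached lines received 50% TCA to a final 10%, 4 °C. All were treated 48 h at 10 µM, then SRB-stained.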

[21] = system: OVCAR-4; conditions: Homo sapiens, read-out: growth inhibition % (GI%)
In short: as §1

[22] = system: SN 12 C; conditions: Homo sapiens, SN12C, read-out: growth inhibition % (GI%)
In short: as §1

[23] = system: EKVX; conditions: Homo sapiens, read-out: growth inhibition % (GI%)
In short: as §1

[24] = system: A498; conditions: Homo sapiens, read-out: growth inhibition % (GI%)
In short: as §1

[25] = system: SNB-19; conditions: Homo sapiens, read-out: growth inhibition % (GI%)
In short: as §1

[26] = system: RXF 393; conditions: Homo sapiens, read-out: growth inhibition % (GI%)
In short: as §1

[27] = system: SNB-75; conditions: Homo sapiens, read-out: growth inhibition % (GI%)
In short: as §1

[28] = system: OVCAR-5; conditions: Homo sapiens, read-out: growth inhibition % (GI%)
In short: as §1

[29] = system: SW-620; conditions: Homo sapiens, read-out: growth inhibition % (GI%)
In short: as §1

[30] = system: PC-3; conditions: Homo sapiens, read-out: growth inhibition % (GI%)
In short: as §1

[31] = system: HOP-92; conditions: Homo sapiens, read-out: growth inhibition % (GI%)
In short: as §1

[32] = system: 786-0; conditions: Homo sapiens, read-out: growth inhibition % (GI%)
In short: as §1

[33] = system: OVCAR-8; conditions: Homo sapiens, read-out: growth inhibition % (GI%)
In short: as §1

Compound	inhibition at 10 µM [1]	inhibition at 10 µM [2]	inhibition at 10 µM [3]	inhibition at 10 µM [4]	inhibition at 10 µM [5]	inhibition at 10 µM [6]	inhibition at 10 µM [7]	inhibition at 10 µM [8]	inhibition at 10 µM [9]	inhibition at 10 µM [10]	inhibition at 10 µM [11]	inhibition at 10 µM [12]	inhibition at 10 µM [13]	inhibition at 10 µM [14]	inhibition at 10 µM [15]	inhibition at 10 µM [16]	inhibition at 10 µM [17]	inhibition at 10 µM [18]	inhibition at 10 µM [19]	inhibition at 10 µM [20]	also measured
Cc1ccc(C(=O)c2ccc(CC(=O)NN3C(=O)CCC3=O)n2C)cc1 [Compound 7a, N-(2,5-Dioxopyrrolidin-1-yl)-2–(1-methyl-5–(4-methylbenzoyl)-1H-pyrrol-2-yl) acetamide]	12.8%	14.4%	< 10%	< 10%	< 10%	12.4%	< 10%	< 10%	< 10%	< 10%	42.8%	11.2%	30.8%	< 10%	13.7%	11.1%	12.8%	22.3%	20.2%	< 10%	inhibition at 10 µM [21]: 31.9%; inhibition at 10 µM [22]: 19.1%; inhibition at 10 µM [23]: 23.9%; inhibition at 10 µM [24]: 14.5%; inhibition at 10 µM [25]: 20%; inhibition at 10 µM [26]: < 10%; inhibition at 10 µM [27]: 40.9%; inhibition at 10 µM [28]: 10.6%; inhibition at 10 µM [29]: < 10%; inhibition at 10 µM [30]: 10%; inhibition at 10 µM [31]: 19.2%; inhibition at 10 µM [32]: < 10%; inhibition at 10 µM [33]: 11%
Cc1ccc(C(=O)c2ccc(CC(=O)NN=Cc3cccc(O)c3O)n2C)cc1 [Compound 5b, N′-(2,3-Dihydroxybenzylidene)-2–(1-methyl-5–(4-methylbenzoyl)-1H-pyrrol-2-yl) acetohydrazide]	80.9%	84%	88.8%	45.1%	66.2%	60.9%	54.3%	91.4%	74%	16.5%	74.1%	69.6%	51.2%	45.6%	54.7%	41.3%	82.7%	48.8%	64.9%	95.9%	inhibition at 10 µM [21]: 70.9%; inhibition at 10 µM [22]: 53.2%; inhibition at 10 µM [23]: 41.2%; inhibition at 10 µM [24]: < 10%; inhibition at 10 µM [25]: 54%; inhibition at 10 µM [26]: 70.3%; inhibition at 10 µM [27]: 74.6%; inhibition at 10 µM [28]: 27.4%; inhibition at 10 µM [29]: 65.8%; inhibition at 10 µM [30]: 40.8%; inhibition at 10 µM [31]: 43.8%; inhibition at 10 µM [32]: 23.6%; inhibition at 10 µM [33]: 61.4%
Cc1ccc(C(=O)c2ccc(CC(=O)NN=Cc3c[nH]c4ccccc34)n2C)cc1 [Compound 5f, N′-((1H-Indol-3-yl)methylene)-2–(1-methyl-5–(4-methylbenzoyl)-1H-pyrrol-2-yl) acetohydrazide]	< 10%	27%	16.5%	16.8%	< 10%	12.2%	< 10%	< 10%	10.4%	< 10%	22.1%	< 10%	18.7%	< 10%	12.4%	15.4%	16.5%	15.2%	15.9%	27%	inhibition at 10 µM [21]: 11.1%; inhibition at 10 µM [22]: < 10%; inhibition at 10 µM [23]: 17.7%; inhibition at 10 µM [24]: 15.6%; inhibition at 10 µM [25]: 12.5%; inhibition at 10 µM [26]: < 10%; inhibition at 10 µM [27]: 25.5%; inhibition at 10 µM [28]: < 10%; inhibition at 10 µM [29]: < 10%; inhibition at 10 µM [30]: < 10%; inhibition at 10 µM [31]: < 10%; inhibition at 10 µM [32]: < 10%; inhibition at 10 µM [33]: < 10%
Cc1ccc(C(=O)c2ccc(CC(=O)NN=Cc3ccccc3O)n2C)cc1 [Compound 5a, N′-(2-Hydroxybenzylidene)-2–(1-methyl-5–(4-methylbenzoyl)-1H-pyrrol-2-yl)aceto hydrazide]	30.6%	18.5%	26%	18.9%	10.9%	12.8%	14.9%	23.4%	23.8%	< 10%	24.4%	15.8%	24.9%	21.1%	17.4%	13.9%	42%	19.1%	18.6%	13%	inhibition at 10 µM [21]: 39.8%; inhibition at 10 µM [22]: 10.2%; inhibition at 10 µM [23]: 17.3%; inhibition at 10 µM [24]: 18%; inhibition at 10 µM [25]: 20.7%; inhibition at 10 µM [26]: 10.4%; inhibition at 10 µM [27]: 40.4%; inhibition at 10 µM [28]: < 10%; inhibition at 10 µM [29]: 10.4%; inhibition at 10 µM [30]: 13.2%; inhibition at 10 µM [31]: < 10%; inhibition at 10 µM [32]: < 10%; inhibition at 10 µM [33]: 21%
